The record followed here is paper PMC9849163, “Characterisation of AMB-FUBINACA metabolism and CB1-mediated activity of its acid metabolite” (Forensic Toxicology, 2022).

pEC50: −log10 of the molar value.

The target in series [1] is T1, CES2 (carboxylesterase-2) (Homo sapiens, UniProt O00748).
T1 construct: carboxylesterase-2 (CES2) human recombinant
T1 sequence (O00748 27-559): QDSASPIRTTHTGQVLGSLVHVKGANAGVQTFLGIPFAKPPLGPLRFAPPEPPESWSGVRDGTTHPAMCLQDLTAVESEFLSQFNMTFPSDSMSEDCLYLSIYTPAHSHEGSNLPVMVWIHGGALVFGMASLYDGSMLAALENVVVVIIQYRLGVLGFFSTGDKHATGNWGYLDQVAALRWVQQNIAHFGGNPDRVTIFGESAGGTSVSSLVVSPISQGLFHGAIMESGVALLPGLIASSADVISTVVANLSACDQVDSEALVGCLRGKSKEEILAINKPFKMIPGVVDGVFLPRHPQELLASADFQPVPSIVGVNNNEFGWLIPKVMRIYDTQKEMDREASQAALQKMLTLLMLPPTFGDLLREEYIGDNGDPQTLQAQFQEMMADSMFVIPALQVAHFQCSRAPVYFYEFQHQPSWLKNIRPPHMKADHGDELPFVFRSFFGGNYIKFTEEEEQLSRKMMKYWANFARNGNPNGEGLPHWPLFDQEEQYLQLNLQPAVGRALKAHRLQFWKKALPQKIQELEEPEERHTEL
As to the kind of experiment: p-nitrophenol formation by recombinant CES2, absorbance at […] nm. Format: biochemical.

Series [2] deals with T2, CES1 (carboxylesterase 1, CES1A1) (Homo sapiens, UniProt P23141).
T2 construct: CES1 isoform b (CES1b/CES1A1) human recombinant
T2 sequence (P23141 18-567): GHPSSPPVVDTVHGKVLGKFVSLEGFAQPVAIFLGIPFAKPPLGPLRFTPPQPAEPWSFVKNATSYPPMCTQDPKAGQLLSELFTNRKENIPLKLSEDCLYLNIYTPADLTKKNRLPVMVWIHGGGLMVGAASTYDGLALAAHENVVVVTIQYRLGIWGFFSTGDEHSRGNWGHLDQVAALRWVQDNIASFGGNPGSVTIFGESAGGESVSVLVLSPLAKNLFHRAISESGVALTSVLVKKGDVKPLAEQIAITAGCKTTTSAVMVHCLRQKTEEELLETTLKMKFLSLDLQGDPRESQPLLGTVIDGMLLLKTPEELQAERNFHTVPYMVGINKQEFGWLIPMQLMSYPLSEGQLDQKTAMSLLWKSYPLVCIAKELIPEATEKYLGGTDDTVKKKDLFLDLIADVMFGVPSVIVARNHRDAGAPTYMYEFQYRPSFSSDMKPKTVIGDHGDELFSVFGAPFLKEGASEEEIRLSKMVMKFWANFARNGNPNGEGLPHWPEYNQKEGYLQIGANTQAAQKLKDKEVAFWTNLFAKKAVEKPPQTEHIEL
As to the kind of experiment: p-nitrophenol formation by recombinant CES1, absorbance at […] nm. It is filed as biochemical.

Series [3] addresses T2, CES1 (carboxylesterase 1, CES1A1). Put plainly: hydrolysis by recombinant CES1, HPLC-DAD time course (t1/[…] s at […]). It is filed as biochemical.
Series [4] addresses T3, cannabinoid type-1 receptor (CB1) (Homo sapiens, UniProt P21554).
T3 construct: gene CNR1; 3HA-tagged human CB1 in HEK293 cells
Put plainly: BRET CAMYEL cAMP inhibition assay (agonism) in HEK293 cells stably expressing 3HA-hCB1. Format: cell-based. A general note: BRET reads energy transfer from a luciferase to a nearby fluorophore.

The target in series [5] is T2, CES1 (carboxylesterase 1, CES1A1). Put plainly: inhibition of PNPA hydrolysis by recombinant CES1, absorbance at […] nm. Format: biochemical. The settings on record: read-out: % of control velocity at 50 μM.
For series [6], the target named is T1, CES2 (carboxylesterase-2). Put plainly: inhibition of PNPA hydrolysis by recombinant CES2, absorbance at […] nm. Format: biochemical. To be noted: read-out: % of control velocity at 50 μM.
The target in series [7] is T3, cannabinoid type-1 receptor (CB1). Put plainly: BRET CAMYEL cAMP inhibition assay (agonism); also weak radioligand displacement ([…] at […]). Format: cell-based.
The target of series [8] is T2, CES1 (carboxylesterase 1, CES1A1). As to the kind of experiment: product of AMB-FUBINACA hydrolysis by recombinant CES1, HPLC-DAD. It is filed as biochemical.

T3 sequence (P21554 whole entry): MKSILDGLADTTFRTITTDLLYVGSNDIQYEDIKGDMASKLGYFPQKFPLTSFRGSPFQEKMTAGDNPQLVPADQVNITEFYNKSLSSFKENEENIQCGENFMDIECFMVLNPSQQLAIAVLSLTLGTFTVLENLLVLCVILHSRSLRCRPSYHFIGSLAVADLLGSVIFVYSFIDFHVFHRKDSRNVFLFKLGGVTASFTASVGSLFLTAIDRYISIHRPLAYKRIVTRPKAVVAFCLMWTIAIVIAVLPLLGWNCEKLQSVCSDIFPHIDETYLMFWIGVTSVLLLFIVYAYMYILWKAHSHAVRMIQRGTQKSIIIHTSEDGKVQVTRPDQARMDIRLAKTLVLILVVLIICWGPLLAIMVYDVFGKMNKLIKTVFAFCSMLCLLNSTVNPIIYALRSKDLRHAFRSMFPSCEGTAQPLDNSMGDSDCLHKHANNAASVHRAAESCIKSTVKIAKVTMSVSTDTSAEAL

Regarding `CC(=O)Oc1ccc([N+](=O)[O-])cc1` [p-nitrophenyl acetate], in series [1], the “p-nitrophenol formation by recombinant CES2, absorbance at 405 nm” value came to 221 nmol/min/mg. In addition, the “p-nitrophenol formation by recombinant CES1, absorbance at 405 nm” value in series [2] is 296 nmol/min/mg.

The half-life is the time needed for the level to fall by half in the phase considered. The term pEC50 denotes the EC50 on a negative log10 scale, so that one unit is a factor of ten. Low readings indicate a high EC50, high ones a low EC50. With `COC(=O)[C@@H](NC(=O)c1nn(Cc2ccc(F)cc2)c2ccccc12)C(C)C` [AMB-FUBINACA, methyl (2S)-2-((1-((4-fluorophenyl)methyl)indazole-3-carbonyl)amino)-3-methylbutanoate], the half-life at 3 µM in series [3] was 2 min. For the same molecule, the negative logarithm of the EC50 (pEC50) in series [4] is 9.83.

Consider `CCCc1nc2c(C)cc(-c3nc4ccccc4n3C)cc2n1Cc1ccc(-c2ccccc2C(=O)O)cc1` [telmisartan], for which the remaining activity at 50 µM was 71% in series [5] and 58.2% in series [6].

As to `CC(C)[C@H](NC(=O)c1nn(Cc2ccc(F)cc2)c2ccccc12)C(=O)O` [AMB-FUBINACA acid, methyl (2S)-2-((1-((4-fluorophenyl)methyl]indazole-3-carbonyl)amino)-3-methylbutanoic acid], the negative-log EC50 (pEC50) in series [7] was 6.35. Further, the “product of AMB-FUBINACA hydrolysis by recombinant CES1, HPLC-DAD” value in series [8] is listed as “No metabolites other than AMB-FUBINACA acid were generated”.
